pIC50: −log10 of the molar value. Where two headings read alike, the source gives them in different places.
Tested on: SH-SY5Y cells
Experiment: sAPPβ release assay
Conditions: for IC50: Homo sapiens, SH-SY5Y
[1] = read-out: IC50 Cell (sAPPβ release, nM)

Compound | IC50 [1] | also measured
COC1CCC2(CC1)Cc1ccc(-c3cc(Cl)cc(C#N)c3)cc1C21COC(N)=N1 (stereo not shown) [Compound 18, 3-((1r,4r)-2″-amino-4-methoxy-3′H,5″H-dispiro[cyclohexane-1,2′-indene-1′,4″-oxazol]-6′-yl-5″,5″-d2)-5-chlorobenzonitrile] |  | pIC50 (read-out: IC50 Cell (sAPPβ release), SH-SY5Y cells, compounds incubated 16-17 h): 8.48
CO[C@@H]1CC[C@]2(Cc3ccc(-c4cncnc4)cc3[C@@]23COC(N)=N3)C[C@H]1C [Compound 33, (1R,1′R,3R,4R)-4-methoxy-3-methyl-6′-(pyrimidin-5-yl)-3′H,5″H-dispiro[cyclohexane-1,2′-indene-1′,4″-oxazol]-2″-amine] | 2.2 nM | 
[2H]C1([2H])OC(N)=NC12c1cc(-c3cc(C#N)cc(OC)c3)ccc1C[C@]21CC[C@@H](OC)CC1 (stereo partly shown) [Compound 36, 3-((1r,4r)-2″-amino-4-methoxy-3′H,5″H-dispiro[cyclohexane-1,2′-indene-1′,4″-oxazol]-6′-yl-5″,5″-d2)-5-methoxybenzonitrile] | 4 nM | 
CO[C@H]1CC[C@]2(CC1)Cc1ccc(-c3cncc(C)c3)cc1C21COC(N)=N1 (stereo partly shown) [Compound 41, (1r,4r)-4-methoxy-6′-(5-methylpyridin-3-yl)-3′H,5″H-dispiro[cyclohexane-1,2′-indene-1′,4″-oxazol]-2″-amine] | 5.1 nM | 
[2H]C1([2H])OC(N)=N[C@]12c1cc(-c3cncnc3)ccc1C[C@@]21CC[C@H](OC)[C@@H](CC)C1 [Compound 68, (1S,1′R,3S,4S)-3-ethyl-4-methoxy-6′-(pyrimidin-5-yl)-3′H,5″H-dispiro[cyclohexane-1,2′-indene-1′,4″-oxazol]-5″,5″-d2-2″-amine] | 1.9 nM | 
[2H]C([2H])([2H])O[C@H]1CC[C@@]2(Cc3ccc(-c4cncnc4)cc3[C@]23N=C(N)OC3([2H])[2H])C[C@@H]1C [Compound 71, (1S,1′R,3S,4S)-4-(methoxy-d3)-3-methyl-6′-(pyrimidin-5-yl)-3′H,5″H-dispiro[cyclohexane-1,2′-indene-1′,4″-oxazol]-5″,5″-d2-2″-amine] | 1.3 nM | 
[2H]C([2H])([2H])O[C@@H]1CC[C@]2(Cc3ccc(-c4cncnc4)cc3[C@]23N=C(N)OC3([2H])[2H])C[C@H]1C [Compound 73, (1R,1′R,3R,4R)-4-(methoxy-d3)-3-methyl-6′-(pyrimidin-5-yl)-3′H,5″H-dispiro[cyclohexane-1,2′-indene-1′,4″-oxazol]-5″,5″-d2-2″-amine] | 6.1 nM | 
[2H]C([2H])([2H])O[C@H]1CC[C@@]2(Cc3ccc(-c4cccnc4F)cc3[C@]23N=C(N)OC3([2H])[2H])C[C@@H]1C [Compound 74, (1S,1′R,3S,4S)-6′-(2-fluoropyridin-3-yl)-4-(methoxy-d3)-3-methyl-3′H,5″H-dispiro[cyclohexane-1,2′-indene-1′,4″-oxazol]-5″,5″-d2-2″-amine] |  | IC50 (read-out: IC50 Cell (sAPPβ release, nM), SH-SY5Y cells, compounds incubated 16-17 h): 0.39 nM
[2H]C1([2H])OC(N)=N[C@]12c1cc(-c3cncnc3)ccc1C[C@]21CC[C@@H](OC)[C@H](CC)C1 [Compound 75, (1R,1′R,3R,4R)-3-ethyl-4-methoxy-6′-(pyrimidin-5-yl)-3′H,5″H-dispiro[cyclohexane-1,2′-indene-1′,4″-oxazol]-5″,5″-d2-2″-amine] | 0.9 nM | 
CO[C@H]1CC[C@]2(CC1)Cc1ccc(-c3cncc(C)c3)cc1[C@@]21COC(N)=N1 [Compound 77, (1r,1′R,4R)-4-methoxy-6′-(5-methylpyridin-3-yl)-3′H,5″H-dispiro[cyclohexane-1,2′-indene-1′,4″-oxazol]-2″-amine] | 7.5 nM | 

Reference: US10053453B2, “Compounds and their use as BACE inhibitors” (AstraZeneca AB, priority 2014, dated 2018)
